Test results: patent publication US8138193B2, “Fused pyrazine compounds useful for the treatment of degenerative and inflammatory diseases” (Janssen Pharmaceutica N.V., priority 2007, dated 2012)

Target: T1, MAPKAPK5 (Homo sapiens, UniProt Q8IW41)
T1 sequence (Q8IW41 1-471 isoform Q8IW41-2): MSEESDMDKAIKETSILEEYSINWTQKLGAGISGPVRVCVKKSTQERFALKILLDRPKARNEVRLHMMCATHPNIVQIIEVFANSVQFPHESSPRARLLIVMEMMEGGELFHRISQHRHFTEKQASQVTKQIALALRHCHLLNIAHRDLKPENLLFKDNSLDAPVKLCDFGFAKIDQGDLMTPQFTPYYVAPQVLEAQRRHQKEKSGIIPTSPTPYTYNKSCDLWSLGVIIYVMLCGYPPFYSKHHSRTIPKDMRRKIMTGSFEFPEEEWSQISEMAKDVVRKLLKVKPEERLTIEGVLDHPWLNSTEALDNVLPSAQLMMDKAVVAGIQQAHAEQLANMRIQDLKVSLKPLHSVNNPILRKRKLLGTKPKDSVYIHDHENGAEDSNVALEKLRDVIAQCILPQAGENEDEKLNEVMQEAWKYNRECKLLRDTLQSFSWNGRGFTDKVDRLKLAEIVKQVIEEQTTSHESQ
Experiment: MAPKAP-K5 FlashPlate kinase assay (33P-ATP)
Format: biochemical
Settings: 0.6 μM ATP, 30 minutes at room temperature
Protocol: 3 μM MAPKAP-K5 peptide substrate

Row | Compound | IC50 [nM]
1 | NC(=O)c1cc(-c2cnc(NC3CCN(Cc4ccccc4)CC3)c3ncnn23)co1 [Example 18, 4-[8-(1-BENZYL-PIPERIDIN-4-YLAMINO)-[1,2,4]TRIAZOLO[1,5-A]PYRAZIN-5-YL]-FURAN-2-CARBOXYLIC ACID AMIDE] | > 1000
2 | CC(C)(C)OC(=O)N1CCC(Nc2ncc(-c3ccc4c(c3)CNC4=O)n3ncnc23)CC1 [Example 12, TERT-BUTYL 4-(5-(1-OXOISOINDOLIN-5-YL)-[1,2,4]TRIAZOLO[1,5-A]PYRAZIN-8-YLAMINO)PIPERIDINE-1-CARBOXYLATE] | 501 to 1000
3 | NC(=O)c1cc(-c2cnc(NC3CCN(Cc4ccccc4)C3)c3nccn23)co1 (single isomer, unassigned) [Example 17, 4-[8-(1-BENZYL-PYRROLIDIN-3-YLAMINO)-IMIDAZO[1,2-A]PYRAZIN-5-YL]-FURAN-2-CARBOXYLIC ACID AMIDE] | > 1000
4 | CC(C)(C)OC(=O)NC1CCC(Nc2ncc(-c3ccc4c(c3)CNC4=O)n3ncnc23)CC1 (stereo not drawn) [Example 16, TERT-BUTYL 4-(5-(1-OXOISOINDOLIN-5-YL)-[1,2,4]TRIAZOLO[1,5-A]PYRAZIN-8-YLAMINO)CYCLOHEXYLCARBAMATE] | 501 to 1000
5 | NC(=O)c1cc(-c2cnc(NC3CCCC3)c3nccn23)co1 [Example 7, 4-(8-(CYCLOPENTYLAMINO)IMIDAZO[1,2-A]PYRAZIN-5-YL)FURAN-2-CARBOXAMIDE] | 501 to 1000
6 | NC(=O)c1cc(-c2cnc(NC3CCC3)c3nccn23)co1 [Example 6, 4-(8-(CYCLOBUTYLAMINO)IMIDAZO[1,2-A]PYRAZIN-5-YL)FURAN-2-CARBOXAMIDE] | 101 to 500
7 | NC(=O)c1cc(-c2cnc(NC3CCC3)c3ncnn23)co1 [Example 2, 4-(8-(cyclobutylamino)-[1,2,4]triazolo[1,5-a]pyrazin-5-yl)furan-2-carboxamide] | 101 to 500
8 | NC(=O)c1cc(-c2cnc(NC3CCN(Cc4ccccc4)C3)c3ncnn23)co1 (stereo not drawn) [Example 4, 4-[8-(1-Benzyl-pyrrolidin-3-ylamino)-[1,2,4]triazolo[1,5-a]pyrazin-5-yl]-furan-2-carboxylic acid amide] | 501 to 1000

The next lines start with the values.

Row | IC50 [nM] | Compound
9 | 101 to 500 | O=C1NCc2cc(-c3cnc(NC4CCC4)c4nccn34)ccc21 [Example 5, 5-(8-(CYCLOBUTYLAMINO)IMIDAZO[1,2-A]PYRAZIN-5-YL)ISOINDOLIN-1-ONE]
10 | 101 to 500 | O=C1NCc2cc(-c3cnc(NC4CC4)c4ncnn34)ccc21 [Example 14, 5-(8-(CYCLOPROPYLAMINO)-[1,2,4]TRIAZOLO[1,5-A]PYRAZIN-5-YL)ISOINDOLIN-1-ONE]
11 | 101 to 500 | O=C1NCc2cc(-c3cnc(NC4CCC(O)CC4)c4ncnn34)ccc21 (stereo not drawn) [Example 15, 5-(8-(4-HYDROXYCYCLOHEXYLAMINO)-[1,2,4]TRIAZOLO[1,5-A]PYRAZIN-5-YL)ISOINDOLIN-1-ONE]
12 | 101 to 500 | O=C1NCc2cc(-c3cnc(NC4CCCCC4)c4nccn34)ccc21 [Example 1, 5-(8-(cyclohexylamino)imidazo[1,2-a]pyrazin-5-yl)isoindolin-1-one]
